Molecular target: mGluR2 (Mus musculus, UniProt Q14BI2, A548F)
Assay: Single-molecule FRET (SiMPull) of azi-CRD: population histograms and state occupancy;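 further: Cy3/Cy5-labelled receptor from HEK293T cell lysate captured on anti-FLAG surfaces, apparent FRET efficiency computed from donor and acceptor intensities with crosstalk correction, pooled into population histograms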
Conditions: for smFRET Histogram, Mean: N 3
[1] = azi-CRD, 5 μM modulator, 0 μM glutamate, fraction of total area
[2] = azi-CRD, 5 μM modulator, 15 μM glutamate, fraction of total area

Sequence of mGluR2 (Q14BI2 19-872 A548F): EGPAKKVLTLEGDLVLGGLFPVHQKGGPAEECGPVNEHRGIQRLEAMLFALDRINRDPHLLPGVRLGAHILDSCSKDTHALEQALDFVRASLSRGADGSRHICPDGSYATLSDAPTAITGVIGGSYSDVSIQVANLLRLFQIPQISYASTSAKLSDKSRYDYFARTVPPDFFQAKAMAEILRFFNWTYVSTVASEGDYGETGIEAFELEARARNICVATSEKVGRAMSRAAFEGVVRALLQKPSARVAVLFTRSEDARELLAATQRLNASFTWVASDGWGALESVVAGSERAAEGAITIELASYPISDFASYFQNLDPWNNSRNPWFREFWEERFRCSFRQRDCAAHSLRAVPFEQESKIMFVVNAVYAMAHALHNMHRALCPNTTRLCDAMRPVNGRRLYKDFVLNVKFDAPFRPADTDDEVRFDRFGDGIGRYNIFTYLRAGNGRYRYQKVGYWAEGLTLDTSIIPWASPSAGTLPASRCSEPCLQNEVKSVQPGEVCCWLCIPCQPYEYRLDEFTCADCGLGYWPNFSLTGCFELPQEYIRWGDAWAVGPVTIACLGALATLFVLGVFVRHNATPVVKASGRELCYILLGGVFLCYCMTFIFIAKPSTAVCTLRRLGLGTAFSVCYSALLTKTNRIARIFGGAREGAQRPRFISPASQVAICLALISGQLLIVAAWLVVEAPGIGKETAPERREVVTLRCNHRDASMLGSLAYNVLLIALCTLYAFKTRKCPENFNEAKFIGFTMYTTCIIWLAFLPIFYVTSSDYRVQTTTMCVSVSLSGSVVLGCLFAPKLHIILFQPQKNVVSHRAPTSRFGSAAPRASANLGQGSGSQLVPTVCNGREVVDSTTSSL

smFRET Histogram, Mean (FRET 0, 0μM Glutamate + GPT/Pyruvate + 5μM MNI-137): 5.11E-04
smFRET Histogram, Mean (FRET 0.02, 0μM Glutamate + GPT/Pyruvate + 5μM MNI-137): 6.64E-04
smFRET Histogram, Mean (FRET 0.04, 0μM Glutamate + GPT/Pyruvate + 5μM MNI-137): 0.00218
smFRET Histogram, Mean (FRET 0.06, 0μM Glutamate + GPT/Pyruvate + 5μM MNI-137): 0.00418
smFRET Histogram, Mean (FRET 0.08, 0μM Glutamate + GPT/Pyruvate + 5μM MNI-137): 0.00801
smFRET Histogram, Mean (FRET 0.1, 0μM Glutamate + GPT/Pyruvate + 5μM MNI-137): 0.01404
smFRET Histogram, Mean (FRET 0.1, 15μM Glutamate + 5μM MNI-137): 0.0021
smFRET Histogram, Mean (FRET 0.12, 0μM Glutamate + GPT/Pyruvate + 5μM MNI-137): 0.02347
smFRET Histogram, Mean (FRET 0.12, 15μM Glutamate + 5μM MNI-137): 0.00321
smFRET Histogram, Mean (FRET 0.14, 0μM Glutamate + GPT/Pyruvate + 5μM MNI-137): 0.03681
smFRET Histogram, Mean (FRET 0.14, 15μM Glutamate + 5μM MNI-137): 0.00506
smFRET Histogram, Mean (FRET 0.16, 0μM Glutamate + GPT/Pyruvate + 5μM MNI-137): 0.05131
smFRET Histogram, Mean (FRET 0.16, 15μM Glutamate + 5μM MNI-137): 0.00784
smFRET Histogram, Mean (FRET 0.18, 0μM Glutamate + GPT/Pyruvate + 5μM MNI-137): 0.06643
smFRET Histogram, Mean (FRET 0.18, 15μM Glutamate + 5μM MNI-137): 0.01263
smFRET Histogram, Mean (FRET 0.2, 0μM Glutamate + GPT/Pyruvate + 5μM MNI-137): 0.07988
smFRET Histogram, Mean (FRET 0.2, 15μM Glutamate + 5μM MNI-137): 0.01781
smFRET Histogram, Mean (FRET 0.22, 0μM Glutamate + GPT/Pyruvate + 5μM MNI-137): 0.08842
smFRET Histogram, Mean (FRET 0.22, 15μM Glutamate + 5μM MNI-137): 0.02498
smFRET Histogram, Mean (FRET 0.24, 0μM Glutamate + GPT/Pyruvate + 5μM MNI-137): 0.08863
smFRET Histogram, Mean (FRET 0.24, 15μM Glutamate + 5μM MNI-137): 0.03347
smFRET Histogram, Mean (FRET 0.26, 0μM Glutamate + GPT/Pyruvate + 5μM MNI-137): 0.08743
smFRET Histogram, Mean (FRET 0.26, 15μM Glutamate + 5μM MNI-137): 0.04243
smFRET Histogram, Mean (FRET 0.28, 0μM Glutamate + GPT/Pyruvate + 5μM MNI-137): 0.07891
smFRET Histogram, Mean (FRET 0.28, 15μM Glutamate + 5μM MNI-137): 0.05374
smFRET Histogram, Mean (FRET 0.3, 0μM Glutamate + GPT/Pyruvate + 5μM MNI-137): 0.06941
smFRET Histogram, Mean (FRET 0.3, 15μM Glutamate + 5μM MNI-137): 0.06299
smFRET Histogram, Mean (FRET 0.32, 0μM Glutamate + GPT/Pyruvate + 5μM MNI-137): 0.05758
smFRET Histogram, Mean (FRET 0.32, 15μM Glutamate + 5μM MNI-137): 0.07069
smFRET Histogram, Mean (FRET 0.34, 0μM Glutamate + GPT/Pyruvate + 5μM MNI-137): 0.04784
smFRET Histogram, Mean (FRET 0.34, 15μM Glutamate + 5μM MNI-137): 0.0754
smFRET Histogram, Mean (FRET 0.36, 0μM Glutamate + GPT/Pyruvate + 5μM MNI-137): 0.03831
smFRET Histogram, Mean (FRET 0.36, 15μM Glutamate + 5μM MNI-137): 0.07714
smFRET Histogram, Mean (FRET 0.38, 0μM Glutamate + GPT/Pyruvate + 5μM MNI-137): 0.03079
smFRET Histogram, Mean (FRET 0.38, 15μM Glutamate + 5μM MNI-137): 0.07309
smFRET Histogram, Mean (FRET 0.4, 0μM Glutamate + GPT/Pyruvate + 5μM MNI-137): 0.02474
smFRET Histogram, Mean (FRET 0.4, 15μM Glutamate + 5μM MNI-137): 0.06696
smFRET Histogram, Mean (FRET 0.42, 15μM Glutamate + 5μM MNI-137): 0.05663
smFRET Histogram, Mean (FRET 0.44, 0μM Glutamate + GPT/Pyruvate + 5μM MNI-137): 0.01517
smFRET Histogram, Mean (FRET 0.44, 15μM Glutamate + 5μM MNI-137): 0.0478
smFRET Histogram, Mean (FRET 0.46, 0μM Glutamate + GPT/Pyruvate + 5μM MNI-137): 0.01122
smFRET Histogram, Mean (FRET 0.46, 15μM Glutamate + 5μM MNI-137): 0.03818
smFRET Histogram, Mean (FRET 0.48, 0μM Glutamate + GPT/Pyruvate + 5μM MNI-137): 0.00878
smFRET Histogram, Mean (FRET 0.48, 15μM Glutamate + 5μM MNI-137): 0.02974
smFRET Histogram, Mean (FRET 0.5, 0μM Glutamate + GPT/Pyruvate + 5μM MNI-137): 0.0069
smFRET Histogram, Mean (FRET 0.5, 15μM Glutamate + 5μM MNI-137): 0.02283
smFRET Histogram, Mean (FRET 0.52, 0μM Glutamate + GPT/Pyruvate + 5μM MNI-137): 0.00522
smFRET Histogram, Mean (FRET 0.52, 15μM Glutamate + 5μM MNI-137): 0.01756
smFRET Histogram, Mean (FRET 0.54, 0μM Glutamate + GPT/Pyruvate + 5μM MNI-137): 0.0038
smFRET Histogram, Mean (FRET 0.54, 15μM Glutamate + 5μM MNI-137): 0.01395
smFRET Histogram, Mean (FRET 0.56, 0μM Glutamate + GPT/Pyruvate + 5μM MNI-137): 0.00307
smFRET Histogram, Mean (FRET 0.56, 15μM Glutamate + 5μM MNI-137): 0.01177
smFRET Histogram, Mean (FRET 0.58, 0μM Glutamate + GPT/Pyruvate + 5μM MNI-137): 0.00238
smFRET Histogram, Mean (FRET 0.58, 15μM Glutamate + 5μM MNI-137): 0.0101
smFRET Histogram, Mean (FRET 0.6, 0μM Glutamate + GPT/Pyruvate + 5μM MNI-137): 0.00226
smFRET Histogram, Mean (FRET 0.6, 15μM Glutamate + 5μM MNI-137): 0.0089
smFRET Histogram, Mean (FRET 0.62, 15μM Glutamate + 5μM MNI-137): 0.0083
smFRET Histogram, Mean (FRET 0.64, 0μM Glutamate + GPT/Pyruvate + 5μM MNI-137): 0.00164
smFRET Histogram, Mean (FRET 0.64, 15μM Glutamate + 5μM MNI-137): 0.00824
smFRET Histogram, Mean (FRET 0.66, 0μM Glutamate + GPT/Pyruvate + 5μM MNI-137): 0.00119
smFRET Histogram, Mean (FRET 0.66, 15μM Glutamate + 5μM MNI-137): 0.00778
smFRET Histogram, Mean (FRET 0.68, 0μM Glutamate + GPT/Pyruvate + 5μM MNI-137): 0.00129
smFRET Histogram, Mean (FRET 0.68, 15μM Glutamate + 5μM MNI-137): 0.00775
smFRET Histogram, Mean (FRET 0.7, 0μM Glutamate + GPT/Pyruvate + 5μM MNI-137): 0.00106
smFRET Histogram, Mean (FRET 0.7, 15μM Glutamate + 5μM MNI-137): 0.00734
smFRET Histogram, Mean (FRET 0.72, 0μM Glutamate + GPT/Pyruvate + 5μM MNI-137): 9.06E-04
smFRET Histogram, Mean (FRET 0.72, 15μM Glutamate + 5μM MNI-137): 0.00691
smFRET Histogram, Mean (FRET 0.74, 0μM Glutamate + GPT/Pyruvate + 5μM MNI-137): 8.03E-04
smFRET Histogram, Mean (FRET 0.74, 15μM Glutamate + 5μM MNI-137): 0.00635
smFRET Histogram, Mean (FRET 0.76, 0μM Glutamate + GPT/Pyruvate + 5μM MNI-137): 9.58E-04
smFRET Histogram, Mean (FRET 0.76, 15μM Glutamate + 5μM MNI-137): 0.00599
smFRET Histogram, Mean (FRET 0.78, 0μM Glutamate + GPT/Pyruvate + 5μM MNI-137): 9.38E-04
smFRET Histogram, Mean (FRET 0.78, 15μM Glutamate + 5μM MNI-137): 0.00583
smFRET Histogram, Mean (FRET 0.8, 0μM Glutamate + GPT/Pyruvate + 5μM MNI-137): 8.49E-04
smFRET Histogram, Mean (FRET 0.8, 15μM Glutamate + 5μM MNI-137): 0.00559
smFRET Histogram, Mean (FRET 0.82, 0μM Glutamate + GPT/Pyruvate + 5μM MNI-137): 9.70E-04
smFRET Histogram, Mean (FRET 0.82, 15μM Glutamate + 5μM MNI-137): 0.00496
smFRET Histogram, Mean (FRET 0.84, 0μM Glutamate + GPT/Pyruvate + 5μM MNI-137): 0.00112
smFRET Histogram, Mean (FRET 0.84, 15μM Glutamate + 5μM MNI-137): 0.00504
smFRET Histogram, Mean (FRET 0.86, 0μM Glutamate + GPT/Pyruvate + 5μM MNI-137): 0.00114
smFRET Histogram, Mean (FRET 0.86, 15μM Glutamate + 5μM MNI-137): 0.00467
smFRET Histogram, Mean (FRET 0.88, 0μM Glutamate + GPT/Pyruvate + 5μM MNI-137): 0.0011
smFRET Histogram, Mean (FRET 0.9, 0μM Glutamate + GPT/Pyruvate + 5μM MNI-137): 0.0013
smFRET Histogram, Mean (FRET 0.9, 15μM Glutamate + 5μM MNI-137): 0.00455
smFRET Histogram, Mean (FRET 0.92, 0μM Glutamate + GPT/Pyruvate + 5μM MNI-137): 0.0011
smFRET Histogram, Mean (FRET 0.92, 15μM Glutamate + 5μM MNI-137): 0.00382
smFRET Histogram, Mean (FRET 0.94, 0μM Glutamate + GPT/Pyruvate + 5μM MNI-137): 8.72E-04
smFRET Histogram, Mean (FRET 0.96, 0μM Glutamate + GPT/Pyruvate + 5μM MNI-137): 0.001
smFRET Histogram, Mean (FRET 0.98, 0μM Glutamate + GPT/Pyruvate + 5μM MNI-137): 6.96E-04
smFRET Histogram, Mean (FRET 1, 0μM Glutamate + GPT/Pyruvate + 5μM MNI-137): 4.51E-04
smFRET Histogram, Mean (FRET 1.02, 0μM Glutamate + GPT/Pyruvate + 5μM MNI-137): 2.62E-04
smFRET Histogram, Mean (FRET 1.04, 0μM Glutamate + GPT/Pyruvate + 5μM MNI-137): 1.50E-04
smFRET Histogram, Mean (FRET 1.06, 0μM Glutamate + GPT/Pyruvate + 5μM MNI-137): 2.86E-05
smFRET Histogram, Mean (FRET 1.08, 0μM Glutamate + GPT/Pyruvate + 5μM MNI-137): 2.33E-05
smFRET Histogram, Mean (FRET 1.1, 0μM Glutamate + GPT/Pyruvate + 5μM MNI-137): 8.10E-05
smFRET Histogram, Mean (FRET 1.12, 0μM Glutamate + GPT/Pyruvate + 5μM MNI-137): 1.94E-05
smFRET Histogram, Mean (FRET 1.14, 0μM Glutamate + GPT/Pyruvate + 5μM MNI-137): 1.94E-05
smFRET Histogram, Mean (FRET 1.16, 0μM Glutamate + GPT/Pyruvate + 5μM MNI-137): 9.97E-06
smFRET Histogram, Mean (FRET 1.18, 0μM Glutamate + GPT/Pyruvate + 5μM MNI-137): 0
smFRET Histogram, Mean (FRET 1.2, 0μM Glutamate + GPT/Pyruvate + 5μM MNI-137): 0
Mean occupancy, state 1 (inactive, FRET 0.24) [1]: 0.7486
Mean occupancy, state 2 (intermediate 1, FRET 0.38) [1]: 0.222
Mean occupancy, state 3 (intermediate 2, FRET 0.70) [1]: 0.02038
Mean occupancy, state 4 (active, FRET 0.87) [1]: 0.00903
Mean occupancy, state 1 (inactive, FRET 0.24) [2]: 0.1039
Mean occupancy, state 2 (intermediate 1, FRET 0.38) [2]: 0.7494
Mean occupancy, state 3 (intermediate 2, FRET 0.70) [2]: 0.1272
Substance: MNI-137
